The nature of data set [1]: Cytotoxicity against HEK293T cells assessed as cell growth inhibition preincubated with compound for 1 hrs followed by 365 nm light irradiation for 5 mins and measured 72 hrs post compound treatment by CellTiter-Glo luminescent assay. The data set is classed as toxicity, cell-based, HEK-293T. Particulars: human.
In data set [2] the test system is A-375. As to the kind of experiment: Antiproliferative activity against human A-375 cells harboring BRAF V600E mutant assessed as cell growth inhibition incubated for 72 hrs in the absence of UV irradiation by CellTiter-Glo luminescent assay. In kind it is functional. Particulars: A-375, light or radiation study.
Data set [3] has as its system A-375. As to the kind of experiment: Antiproliferative activity against human A-375 cells harboring BRAF V600E mutant assessed as cell growth inhibition preincubated with compound for 1 hrs followed by 365 nm light irradiation for 5 mins and measured 72 hrs post compound treatment by CellTiter-Glo luminescent assay. In kind it is functional. Particulars: A-375, light or radiation study.

Data set [4] concerns A549. Put plainly: Antiproliferative activity against human A549 cells harboring KRas […] mutant assessed as cell growth inhibition preincubated with compound for 1 hrs followed by UV irradiation for 5 mins and measured 72 hrs post compound treatment by CellTiter-Glo luminescent assay. The data set is classed as functional. Particulars: A549, light or radiation study.
The subject of data set [5] is A-375. As to the kind of experiment: Antiproliferative activity against human A-375 cells harboring BRAF V600E mutant assessed as cell growth inhibition preincubated with compound for 1 hrs followed by UV irradiation for 1 min and measured 72 hrs post compound treatment by CellTiter-Glo luminescent assay. In kind it is functional. As to conditions: A-375, light or radiation study.

For data set [6], the system named is HCT-116. Put plainly: Antiproliferative activity against human HCT-116 cells harboring KRAS G13D mutant assessed as cell growth inhibition incubated for 72 hrs in the absence of UV irradiation by CellTiter-Glo luminescent assay. Particulars: HCT-116, light or radiation study. The data set is classed as functional.
For data set [7], the system named is A-375. Put plainly: Antiproliferative activity against human A-375 cells harboring BRAF V600E mutant assessed as cell growth inhibition preincubated with compound for 1 hrs followed by UV irradiation for 5 mins and measured 72 hrs post compound treatment by CellTiter-Glo luminescent assay. The data set is classed as functional. As to conditions: A-375, light or radiation study.

In data set [8] the test system is A549. As to the kind of experiment: Antiproliferative activity against human A549 cells harboring KRAS […] mutant assessed as cell growth inhibition incubated for 72 hrs in the absence of UV irradiation by CellTiter-Glo luminescent assay. The data set is classed as functional. As to conditions: A549, light or radiation study.
For data set [9], the system named is A-375. As to the kind of experiment: Antiproliferative activity against human A-375 cells harboring BRAF V600E mutant assessed as cell growth inhibition preincubated with compound for 1 hrs followed by UV irradiation for 3 mins and measured 72 hrs post compound treatment by CellTiter-Glo luminescent assay. The data set is classed as functional. Particulars: A-375, light or radiation study.

The nature of data set [10]: Photoactivation of the compound assessed as photocleavage by measuring decay half-life in the presence of 365 nm UV irradiation by HPLC based LC-MS analysis.
A short description of data set [11]: Photoactivation of the compound assessed as photocleavage in the presence of 365 nm UV irradiation by HPLC based LC-MS analysis.
Data set [12] concerns HCT-116. Put plainly: Antiproliferative activity against human HCT-116 cells harboring KRAS G13D mutant assessed as cell growth inhibition preincubated with compound for 1 hrs followed by UV irradiation for 5 mins and measured 72 hrs post compound treatment by CellTiter-Glo luminescent assay. In kind it is functional. As to conditions: HCT-116, light or radiation study.
A short description of data set [13]: Cytotoxicity against HEK293T cells assessed as cell growth inhibition incubated for 72 hrs by CellTiter-Glo luminescent assay. In kind it is toxicity, cell-based, HEK-293T. As to conditions: human.
Data set [14] in a line: Stability of the compound under 365 nm UV irradiation measured after 10 mins. The data set is classed as physicochemical.
Data set [15] concerns the target Mitogen-activated protein kinase; ERK1/ERK2 (Homo sapiens, UniProt P27361+P28482). As to the kind of experiment: Inhibition of ERK1/2 phosphorylation in human A-375 cells incubated for 1 hrs in the absence of UV irradiation by Western blot analysis. The data set is classed as cell-based.
In data set [16] the test system is A-375. Put plainly: Inhibition of colony formation in human A-375 cells at 10 to 300 nM incubated for 10 days by crystal violet staining based analysis. The data set is classed as functional, cell-based. Particulars: dose 10-300 nM, time 10.0 day.
Data set [17] in a line: Stability in human blood plasma assessed as half-life. The data set is classed as ADME, cell-free.
Data set [18] can be described thus: Stability of the compound in PBS-DMSO solution assessed as drug degradation measured after 12 hrs in the absence of light irradiation. The data set is classed as physicochemical. As to conditions: read-out: Drug degradation.
The target of data set [19] is Dual specificity mitogen-activated protein kinase kinase 1 (Homo sapiens, UniProt Q02750). Put plainly: Inhibition of MEK1 (unknown origin) incubated for 1 hrs in the presence of ATP by FRET-based Z'-Lyte assay.
A short description of data set [20]: Photoactivation of the compound assessed as photocleavage by measuring mirdametinib recovery in the presence of 365 nm UV irradiation by HPLC based LC-MS analysis.
Data set [21] can be described thus: Photoactivation of the compound assessed as fold change in caging efficiency.

The source made the active and inactive calls. The rule behind the calls is not given here.

Chain of Dual specificity mitogen-activated protein kinase kinase 1 (Q02750 whole entry): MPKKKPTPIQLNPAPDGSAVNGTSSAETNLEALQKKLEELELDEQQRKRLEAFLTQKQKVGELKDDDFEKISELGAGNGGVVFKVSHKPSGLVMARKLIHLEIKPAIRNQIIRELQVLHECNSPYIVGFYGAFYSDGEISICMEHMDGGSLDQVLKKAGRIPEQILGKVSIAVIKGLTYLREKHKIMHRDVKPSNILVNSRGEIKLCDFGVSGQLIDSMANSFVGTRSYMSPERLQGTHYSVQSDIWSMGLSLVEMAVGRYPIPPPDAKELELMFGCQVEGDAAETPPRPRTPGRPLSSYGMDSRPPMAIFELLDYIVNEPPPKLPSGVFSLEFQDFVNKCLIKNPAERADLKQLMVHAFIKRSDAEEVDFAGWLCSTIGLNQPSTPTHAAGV

With `CCN(CC)c1ccc2c(COC(=O)[C@H](C)NC(=O)OC(C)(C)C)cc(=O)oc2c1`, the GI50 at 72 h in data set [1] is above 100 µM. The GI50 in the data set on A-375 [2] is above 100000 nM; with A-375 [3], 15.8 nM.

`CC(O/C(=N\OC[C@H](O)CO)c1ccc(F)c(F)c1Nc1ccc(I)cc1F)c1cc2c(cc1[N+](=O)[O-])OCO2` (some centres undefined): the GI50 in the data set with A549 [4] is 478 nM; in the data set on A-375 [5], 28.6 nM; in the data set on HCT-116 [6], above 10000 nM; in the data set with A-375 [7], 7.17 nM; in the data set on A549 [8], above 10 µM; with A-375 [9] it was 9.7 nM. In addition, the 50% growth inhibitory concentration (GI50) came to 3610 nM in the data set with A-375 [2] and 169 nM with HCT-116 [12]. For the same molecule, the half-life in [10] is 1.26 min. In addition, the Drug metabolism entry in data set [11] was “Metabolite_Detected”. Besides, in data set [13], the GI50 at 72 h is above 10 µM.

As to `O=C(NOCCO)c1ccc(F)c(F)c1Nc1ccc(I)cc1F`, the GI50 in the data set on A-375 [2] is 3.36 nM.

Regarding `CC(OC(=O)[C@H](C)NC(=O)OC(C)(C)C)c1cc2c(cc1[N+](=O)[O-])OCO2` (some centres undefined), the 50% growth inhibitory concentration (GI50) at 72 h in data set [1] was above 100 µM. Also, the 50% growth inhibitory concentration (GI50) in the data set on A-375 [2] was above 100000 nM; with A-375 [3], above 100 nM.

Consider `COc1cc(COC(=O)[C@H](C)NC(=O)OC(C)(C)C)c([N+](=O)[O-])cc1OC`, for which, in data set [1], the GI50 at 72 h is above 100 µM. Besides, the values for the GI50 in the data set with A-375 [2] and in the data set on A-375 [3] were above 100000 nM and above 100 nM, respectively.

As to `O=C(NOC[C@H](O)CO)c1ccc(F)c(F)c1Nc1ccc(I)cc1F` [MIRDAMETINIB], the Stability entry in [14] is reported as “Stable”. Also, the GI50 in the data set on A549 [4] came to 10.6 nM; in the data set with A-375 [5], 1.37 nM; in the data set on HCT-116 [6] it was 44.7 nM; with A-375 [7], 1.49 nM; in the data set on A549 [8], 0.00494 µM; with A-375 [9] it was 1.59 nM. The GI50 with A-375 [2] came out at 1.28 nM; with HCT-116 [12], 52.5 nM. Also, in [15], the EC50 is ~ 1.2 nM. Further, the inhibition entry in the data set on A-375 [16] is “Active”. Besides, the half-life in [17] is above 289 min. Also, the GI50 at 72 h in data set [13] was above 10 µM.

Consider `C[C@H](NC(=O)OC(C)(C)C)C(=O)OCc1cc2c(cc1[N+](=O)[O-])OCO2`, for which the GI50 at 72 h in data set [1] is above 100 µM. Also, the GI50 in the data set on A-375 [2] was above 100000 nM; in the data set on A-375 [3], above 100 nM.

For the molecule `COc1cc(CN(c2ccc(I)cc2F)c2c(C(=O)NOC[C@H](O)CO)ccc(F)c2F)c([N+](=O)[O-])cc1OC`, the degraded at 12 h in data set [18] is above 30%. Besides, the concentration for 50% growth inhibition (GI50) in the data set on A-375 [5] was 9.95 nM; with A-375 [7] it was 5.59 nM; in the data set with A-375 [9], 3.76 nM; with A-375 [2], 18.1 nM. Further, in data set [10], the half-life worked out at 0.19 min.

With `COc1ccc(CN(c2ccc(I)cc2F)c2c(C(=O)NOC[C@H](O)CO)ccc(F)c2F)cc1OC`, in the data set on A-375 [2], the concentration for 50% growth inhibition (GI50) came to 1520 nM.

For the molecule `COc1cc(CO/C(=N\OC[C@H](O)CO)c2ccc(F)c(F)c2Nc2ccc(I)cc2F)c([N+](=O)[O-])cc1OC`, the 50% growth inhibitory concentration (GI50) in the data set with A549 [4] was 1890 nM; in the data set on A-375 [5], 272 nM; with HCT-116 [6], 1920 nM; in the data set on A-375 [7], 82.2 nM; in the data set with A549 [8], above 10 µM; in the data set with A-375 [9], 82.8 nM. In addition, the GI50 worked out at 1170 nM in the data set with A-375 [2] and 1050 nM with HCT-116 [12]. Further, the half-life in [10] came to 1.71 min. Further, in data set [13], the GI50 at 72 h is above 10 µM.

In the case of `COc1cc(C(C)OC(=O)[C@H](C)NC(=O)OC(C)(C)C)c([N+](=O)[O-])cc1OC` (some centres undefined), the GI50 at 72 h in data set [1] is above 100 µM. In addition, the GI50 in the data set with A-375 [2] is above 100000 nM; in the data set with A-375 [3], above 100 nM.

Consider `COc1cc(COCCONC(=O)c2ccc(F)c(F)c2Nc2ccc(I)cc2F)c([N+](=O)[O-])cc1OC`, for which the GI50 amounted to 43.4 nM in the data set with A-375 [5], 9.4 nM in the data set with A-375 [7], 16 nM in the data set on A-375 [9] and 7130 nM with A-375 [2]. In addition, the half-life in data set [10] turned out to be 0.52 min.

Regarding `C[C@H](NC(=O)OC(C)(C)C)C(=O)O`, in data set [1], the GI50 at 72 h was above 100 µM. Further, the GI50 with A-375 [2] was above 100000 nM; in the data set on A-375 [3], above 100 nM.

Consider `O=[N+]([O-])c1cc2c(cc1CO/C(=N\OC[C@H](O)CO)c1ccc(F)c(F)c1Nc1ccc(I)cc1F)OCO2`, for which the GI50 with A549 [4] was 896 nM; in the data set with A-375 [5], 128 nM; in the data set with HCT-116 [6], above 10000 nM; in the data set with A-375 [7], 40.3 nM; with A549 [8] it was above 10 µM; in the data set on A-375 [9], 36.7 nM. In addition, the GI50 with A-375 [2] stood at 605 nM; with HCT-116 [12], 236 nM. Moreover, the half-life in data set [10] came to 1.68 min. In addition, the Drug metabolism result in [11] was “Metabolite_Detected”. Besides, in data set [13], the GI50 at 72 h is above 10 µM.

Consider `CCN(CC)c1ccc2c(CO/C(=N\OC[C@H](O)CO)c3ccc(F)c(F)c3Nc3ccc(I)cc3F)cc(=O)oc2c1`, for which, in data set [19], the IC50 was above 30 µM. For the same molecule, the GI50 was 270 nM with A549 [4]; 222 nM in the data set with A-375 [5]; 1500 nM in the data set with HCT-116 [6]; 108 nM in the data set on A-375 [7]; above 10 µM in the data set with A549 [8]; 123 nM with A-375 [9]. The 50% growth inhibitory concentration (GI50) was 9800 nM in the data set with A-375 [2] and 1750 nM in the data set on HCT-116 [12]. For the same molecule, in [20], the Drug recovery is reported as below 10%. Moreover, in data set [21], the “fold change (FC)” value is above 5085. The half-life in data set [10] came to 0.2 min. Also, the GI50 at 72 h in [13] is above 10 µM.

The values are drawn from ChEMBL document CHEMBL5346924, “Optically activated MEK1/2 inhibitors (Opti-MEKi) as potential antimelanoma agents” (Eur J Med Chem, 2023).
